In patent US20230266303A1, “SYSTEM” (GTINVENT LIMITED, priority 2020, published 2023):
Where “and” joins values, the source holds several entries; their conditions need not be identical. Identical values can stand only once. Entries after “also recorded” stand apart in the source; their conditions may differ.

Tested on: endogenous tau in dSH-SY5Y cells
Experiment: Western blot of whole lysate and Triton X-100 sequential extraction of endogenous tau
Format: cell-based, human
Details: 24 h
Protocol: Cells were detached from the coverslip by incubation in 0.25% trypsin-EDTA (Gibco™) and then mixed with 5 ml culture media. The cells were harvested by centrifugation at 500×g for 5 minutes and the supernatant was discarded. The cell pellet was resuspended in ice-cold PBS and centrifuged at 500×g at 4° C. Cells were lysed in 1% Triton lysis buffer (1% Triton X-100 (v/v), 150 mM NaCl and 50 mM Tris-HCl, pH 7.6) containing Halt™ protease inhibitors (Thermo Scientific) and phosphatase inhibitors (Thermo Scientific) for 15 minutes on ice. The samples were centrifuged at 16,000×g for 30 minutes at 4° C., and the supernatant was collected (Triton-soluble fraction). The pellet was resuspended in SDS lysis buffer (1% SDS (w/v), 150 mM NaCl and 50 mM Tris-HCl, pH 7.6) containing protease and phosphatase inhibitors. The samples were centrifuged at 16,000×g for 30 minutes at room temperature and the supernatant was collected (Triton-insoluble fraction). Protein concentration in the Triton-soluble fractions were determined using the Pierce™ BCA Protein Assay Kit (Thermo Scientific) according to the manufacturer's instructions.
For cell lysates, Triton-soluble protein (20 μg) and an equal volume of Triton-insoluble protein were each mixed with Læmmli sample buffer (4×) (Bio-Rad Laboratories) containing 5% (v/v) […] and heated at 95° C. for 5 minutes. For recombinant protein, 3 μg was mixed with sample buffer without reducing agent or boiling. All samples were centrifuged for five minutes at 1000×g and samples were loaded onto 4-20% Mini-PROTEAN® precast gels (Bio-Rad Laboratories) and run at 120 V for 1 h in Tris-glycine running buffer (25 mM Tris, 192 mM glycine, pH 8.3), or until the sample buffer reached the end of the gel. For Coomassie staining, the gel was washed three times in double distilled water for five minutes and stained with Imperial™ protein stain (Thermo Scientific) for 1 h and then destained overnight in double distilled water. The stained gel was scanned using an HP Photosmart C5280 scanner. For western blotting, the separated proteins on the gel were transferred to nitrocellulose membrane (0.45 μm) at 200 mA for 90 minutes. The membranes were blocked in 5% (w/v) bovine serum albumin (BSA) in Tris-buffered saline (50 mM Tris-HCl, pH7.4, 150 mM NaCl) containing 0.1% (v/v) Tween-20 (TBS-T) for 1 h rocking at room temperature. Membranes were incubated with primary antibodies diluted in 5% BSA in TBS-T overnight at 4° C. The following primary antibodies and dilutions were used; Anti-Tau (polyclonal, total tau) (Thermo Scientific) (1:2500), AT180 (anti-pT231) (Thermo Scientific) (1:1000), AT8 (anti-pS202-T205) (1:1000) (Thermo Scientific), anti-GAPDH (1:5000) (Abcam). […] Immunoreactive protein bands were detected using ECL substrate (Clarity™, Bio-Rad) and X-ray films were scanned using an HP Photosmart C5280 scanner. FIJI was used to quantify the bands in arbitrary densitometry units. The density of bands corresponding to full-length tau (50-70 kDa) were determined and normalised against amount of GAPDH. […] For the quantification of Triton-insoluble and soluble protein, the proportion of tau in the insoluble and soluble fraction was calculated using the equations insoluble/(soluble+insoluble) or soluble/(soluble+insoluble), respectively and expressed as a percentage of the respective soluble or insoluble control value. […]

[1] = whole lysate (RIPA), 1 μM soluble dGAE

dGAE: recombinant truncated tau, 95 residues fragment of Tau (2N4R), Ile-297 to Glu-391, SEQ ID NO: 4
proportion of AT180 tau in Triton-X 100 insoluble fraction, percentage of buffer-treated controls (soluble dGAE, buffer 100±0): 139.4±14.54% and 139.4±14.5%
proportion of AT180 tau in Triton-X 100 soluble fraction, percentage of buffer-treated controls (soluble dGAE, buffer 100±0): 82.98±5.48% and 83.0±5.5%
AT8 immunoreactivity vs buffer-treated control (western blot) [1]: no significant difference; also recorded: marginal increases
AT180 immunoreactivity vs buffer-treated control (western blot) [1]: no significant difference; also recorded: marginal increases
total tau immunoreactivity vs buffer-treated control (western blot) [1]: no significant difference; also recorded: no change
